The values that follow come from patent US20250197372A1 (priority 2020, published 2025).

Holding throughout (type): biochemical
The target in assay [1] is recombinant human GAA (acid alpha-glucosidase) (Homo sapiens, UniProt P10253). The assay can be described thus: Acid alpha-glucosidase (GAA) assay (4-methylumbelliferyl-alpha-D-pyranoside substrate, fluorescence). In a few lines: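 Recombinant human enzyme preincubated 60 min at 37 °C with compound dilutions, then 4-methylumbelliferyl-alpha-D-pyranoside substrate added for 20 min at 37 °C. Stopped with glycine/NaOH pH 10; methylumbelliferone fluorescence (ex 365, em 440 nm) versus untreated enzyme; IC50 by 4-PL fit.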

The target in assay [2] is T1, recombinant alpha-glucosidase II (murine full-length glucosidase II, alpha and beta subunits, Glu 2) (Mus musculus, UniProt Q8BHN3).
T1 construct: made in house; host or cells: HEK-293T cells transduced with BacMam viruses (75% alpha, 25% beta); protein harvested from culture supernatant
T1 sequence (O08795 15-521): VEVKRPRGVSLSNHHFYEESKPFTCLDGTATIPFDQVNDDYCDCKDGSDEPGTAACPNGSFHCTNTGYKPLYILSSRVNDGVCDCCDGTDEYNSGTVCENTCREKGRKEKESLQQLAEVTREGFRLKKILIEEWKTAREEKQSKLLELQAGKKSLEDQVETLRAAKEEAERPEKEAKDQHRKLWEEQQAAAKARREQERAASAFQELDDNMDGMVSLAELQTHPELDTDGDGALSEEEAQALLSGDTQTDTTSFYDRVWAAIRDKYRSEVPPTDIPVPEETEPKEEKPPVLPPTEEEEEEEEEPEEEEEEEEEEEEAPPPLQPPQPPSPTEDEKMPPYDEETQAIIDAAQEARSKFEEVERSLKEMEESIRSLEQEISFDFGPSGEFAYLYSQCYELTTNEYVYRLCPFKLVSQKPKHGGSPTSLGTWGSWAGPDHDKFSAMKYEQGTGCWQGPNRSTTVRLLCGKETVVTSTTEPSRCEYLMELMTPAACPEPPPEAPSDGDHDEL
T1 sequence (Q8BHN3 33-944): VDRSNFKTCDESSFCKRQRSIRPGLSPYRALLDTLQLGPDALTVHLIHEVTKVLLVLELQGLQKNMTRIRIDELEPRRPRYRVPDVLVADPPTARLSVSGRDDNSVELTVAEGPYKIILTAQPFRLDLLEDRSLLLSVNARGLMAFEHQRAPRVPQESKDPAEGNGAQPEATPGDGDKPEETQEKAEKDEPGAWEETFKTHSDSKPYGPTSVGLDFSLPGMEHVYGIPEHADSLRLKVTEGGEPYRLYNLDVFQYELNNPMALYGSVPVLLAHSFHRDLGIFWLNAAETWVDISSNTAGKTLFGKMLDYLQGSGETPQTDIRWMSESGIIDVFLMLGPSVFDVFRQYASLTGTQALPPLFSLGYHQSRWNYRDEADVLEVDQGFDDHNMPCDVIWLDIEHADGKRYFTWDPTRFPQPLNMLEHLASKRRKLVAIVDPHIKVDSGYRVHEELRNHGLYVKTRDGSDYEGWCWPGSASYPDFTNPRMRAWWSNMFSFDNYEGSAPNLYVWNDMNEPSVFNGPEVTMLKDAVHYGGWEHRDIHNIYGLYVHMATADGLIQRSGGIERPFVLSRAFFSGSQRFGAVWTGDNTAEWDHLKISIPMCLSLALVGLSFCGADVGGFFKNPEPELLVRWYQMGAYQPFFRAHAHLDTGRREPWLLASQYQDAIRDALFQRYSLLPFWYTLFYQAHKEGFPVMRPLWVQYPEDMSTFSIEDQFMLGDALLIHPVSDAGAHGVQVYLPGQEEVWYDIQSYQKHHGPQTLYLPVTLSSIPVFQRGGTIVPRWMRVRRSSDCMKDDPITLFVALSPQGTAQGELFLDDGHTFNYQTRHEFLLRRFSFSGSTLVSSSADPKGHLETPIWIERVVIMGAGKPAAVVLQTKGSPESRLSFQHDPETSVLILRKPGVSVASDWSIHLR
The assay can be described thus: Alpha-glucosidase II assay (4-methylumbelliferyl-alpha-D-pyranoside substrate, fluorescence). The note with it: Glucosidase 2; read-out: Glu2 IC50.

Assay [3] deals with rat sucrase (partially purified alpha-glucosidase from intestinal rat powder) (Rattus norvegicus, UniProt P23739). The assay can be described thus: Intestinal alpha-glucosidase assay, sucrose substrate (Glucose GO Kit). The method in brief:
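Rat intestinal enzyme prep + test cpd dilutions, 60 min 37 °C; add maltose (maltase) or sucrose (sucrase), 30 min 37 °C; stop 90 °C 5 min. Glucose readout (glucose oxidase kit). IC50 from 4-PL fit of % inhibition vs conc.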

Assay [4] has as its target T2, recombinant human GBA (beta-glucocerebrosidase) (Homo sapiens, UniProt P04062).
T2 sequence (P04062 40-536): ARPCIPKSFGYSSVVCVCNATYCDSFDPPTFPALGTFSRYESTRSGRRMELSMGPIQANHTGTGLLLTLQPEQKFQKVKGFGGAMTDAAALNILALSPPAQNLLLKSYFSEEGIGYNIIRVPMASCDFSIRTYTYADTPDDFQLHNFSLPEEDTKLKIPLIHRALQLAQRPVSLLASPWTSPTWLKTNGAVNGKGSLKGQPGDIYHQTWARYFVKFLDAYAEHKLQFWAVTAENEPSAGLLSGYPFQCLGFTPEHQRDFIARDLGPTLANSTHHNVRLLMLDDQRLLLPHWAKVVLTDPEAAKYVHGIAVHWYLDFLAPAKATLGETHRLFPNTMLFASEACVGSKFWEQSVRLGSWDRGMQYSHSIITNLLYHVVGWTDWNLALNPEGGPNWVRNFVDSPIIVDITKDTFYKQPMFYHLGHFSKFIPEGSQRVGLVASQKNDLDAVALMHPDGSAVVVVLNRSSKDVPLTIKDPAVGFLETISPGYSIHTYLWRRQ
The assay can be described thus: Beta-glucocerebrosidase (GBA, glucosylceramidase) assay (4-methylumbelliferyl-beta-D-pyranoside substrate, fluorescence). In a few lines: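 Recombinant human GBA preincubated with compound dilutions 60 min at 37 °C, then 4-methylumbelliferyl-beta-D-pyranoside added for 60 min at 37 °C. Stopped at pH 10 (glycine/NaOH); fluorescence ex 365/em 440 nm. IC50 from 4-PL fit of inhibition relative to untreated enzyme.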

Assay [5] has as its target rat maltase (partially purified alpha-glucosidase from intestinal rat powder). Kind of assay: Intestinal alpha-glucosidase assay, maltose substrate (Glucose GO Kit). In a few lines:
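Glucose release is the read-out: compounds at multiple dilutions are first held with partially purified rat intestinal alpha-glucosidase for 60 min at 37 °C, after which maltose or sucrose substrate reacts for 30 min at 37 °C before a 5 min 90 °C stop. IC50 comes from a four-parameter logistic fit.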

Chain of rat sucrase (partially purified alpha-glucosidase from intestinal rat powder) (P23739 whole entry): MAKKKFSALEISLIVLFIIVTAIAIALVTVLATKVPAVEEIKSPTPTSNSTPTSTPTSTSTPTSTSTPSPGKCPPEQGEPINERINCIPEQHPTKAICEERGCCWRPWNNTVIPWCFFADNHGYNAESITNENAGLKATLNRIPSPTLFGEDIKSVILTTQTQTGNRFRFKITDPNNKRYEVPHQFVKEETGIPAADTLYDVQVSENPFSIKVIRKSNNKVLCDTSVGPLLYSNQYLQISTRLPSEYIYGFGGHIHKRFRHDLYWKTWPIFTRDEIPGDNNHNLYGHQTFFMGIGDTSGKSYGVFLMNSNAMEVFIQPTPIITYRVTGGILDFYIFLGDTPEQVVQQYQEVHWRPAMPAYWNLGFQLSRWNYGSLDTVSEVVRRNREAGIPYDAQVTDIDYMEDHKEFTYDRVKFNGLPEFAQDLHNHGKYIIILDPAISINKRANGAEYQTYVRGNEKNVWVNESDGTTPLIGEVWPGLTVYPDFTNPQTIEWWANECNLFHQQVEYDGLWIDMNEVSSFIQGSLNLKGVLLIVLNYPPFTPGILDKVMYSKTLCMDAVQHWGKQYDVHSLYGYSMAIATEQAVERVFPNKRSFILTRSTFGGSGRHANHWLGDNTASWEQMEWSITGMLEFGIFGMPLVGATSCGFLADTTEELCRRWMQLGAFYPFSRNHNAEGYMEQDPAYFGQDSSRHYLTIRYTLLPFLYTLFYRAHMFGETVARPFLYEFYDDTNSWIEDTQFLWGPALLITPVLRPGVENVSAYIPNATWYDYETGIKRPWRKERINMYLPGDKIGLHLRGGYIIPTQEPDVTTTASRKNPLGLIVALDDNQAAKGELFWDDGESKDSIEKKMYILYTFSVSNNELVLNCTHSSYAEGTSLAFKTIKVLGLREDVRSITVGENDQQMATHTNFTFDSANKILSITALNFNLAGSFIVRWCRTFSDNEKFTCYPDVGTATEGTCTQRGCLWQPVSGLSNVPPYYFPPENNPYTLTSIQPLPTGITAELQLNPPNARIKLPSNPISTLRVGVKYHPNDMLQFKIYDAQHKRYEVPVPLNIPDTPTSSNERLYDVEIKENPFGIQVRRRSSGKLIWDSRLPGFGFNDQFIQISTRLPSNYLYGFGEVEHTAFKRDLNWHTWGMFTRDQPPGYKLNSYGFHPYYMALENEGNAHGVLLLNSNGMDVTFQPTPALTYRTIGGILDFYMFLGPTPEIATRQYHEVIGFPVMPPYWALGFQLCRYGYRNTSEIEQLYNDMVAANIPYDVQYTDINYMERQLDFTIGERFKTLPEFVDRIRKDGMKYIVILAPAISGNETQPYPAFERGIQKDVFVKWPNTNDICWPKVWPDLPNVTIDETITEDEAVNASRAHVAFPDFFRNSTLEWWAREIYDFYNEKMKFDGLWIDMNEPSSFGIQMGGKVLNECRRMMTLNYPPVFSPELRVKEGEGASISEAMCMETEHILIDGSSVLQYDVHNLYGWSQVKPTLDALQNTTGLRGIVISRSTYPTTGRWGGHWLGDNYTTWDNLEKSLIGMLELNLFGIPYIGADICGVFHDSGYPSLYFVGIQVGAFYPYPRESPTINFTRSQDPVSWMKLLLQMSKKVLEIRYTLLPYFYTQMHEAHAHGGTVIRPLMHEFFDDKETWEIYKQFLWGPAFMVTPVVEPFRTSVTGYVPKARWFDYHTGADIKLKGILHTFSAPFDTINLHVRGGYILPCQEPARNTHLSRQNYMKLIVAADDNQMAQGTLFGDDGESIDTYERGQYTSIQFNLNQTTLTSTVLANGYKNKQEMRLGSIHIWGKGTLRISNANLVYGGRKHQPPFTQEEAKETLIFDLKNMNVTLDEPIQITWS

What is called IC50 is the point on the concentration scale where inhibition reaches its midpoint. For the compound `N#Cc1cc(NCc2cccc(CN3C[C@H](O)[C@@H](O)[C@H](O)[C@H]3CO)c2)cc(-c2ncccn2)c1` [Compound 1047, 3-(pyrimidin-2-yl)-5-{[(3-{[(2R,3R,4R,5S)-3,4,5-trihydroxy-2-(hydroxymethyl)piperidin-1-yl]methyl}phenyl)methyl]amino}benzonitrile], the IC50 in assay [1] is 1470 nM; in assay [2], 12900 nM; in assay [3], 11 nM; in assay [4] it was 87300 nM; in assay [5], less than 1 nM.

`Cc1cc(NCc2ccc(CN3C[C@H](O)[C@@H](O)[C@H](O)[C@H]3CO)cc2)cc(N2CCOCC2)c1` [Compound 1048, (2R,3R,4R,5S)-2-(hydroxymethyl)-1-{[4-({[3-methyl-5-(morpholin-4-yl)phenyl]amino}methyl)phenyl]methyl}piperidine-3,4,5-triol]: the half-inhibitory concentration (IC50) in assay [1] was 366 nM; in assay [2], 550 nM; in assay [3], 59 nM; in assay [4] it was greater than 100000 nM; in assay [5] it was 13 nM.

Turning to `Cc1cc(NCc2ccc(CN3C[C@H](O)[C@@H](O)[C@H](O)[C@H]3CO)cc2)cc(C2=COCCO2)c1` [Compound 1050, (2R,3R,4R,5S)-1-{[4-({[3-(5,6-dihydro-1,4-dioxin-2-yl)-5-methylphenyl]amino}methyl)phenyl]methyl}-2-(hydroxymethyl)piperidine-3,4,5-triol], the half-inhibitory concentration (IC50) in assay [1] was 278 nM; in assay [2] it was 3 nM; in assay [3], 4 nM; in assay [4], greater than 100000 nM; in assay [5], less than 1 nM.

For the compound `Cc1cc(NCc2ccc(CN3C[C@H](O)[C@@H](O)[C@H](O)[C@H]3CO)cc2)cc(-c2ccc[nH]2)c1` [Compound 1051, (2R,3R,4R,5S)-2-(hydroxymethyl)-1-{[4-({[3-methyl-5-(1H-pyrrol-2-yl)phenyl]amino}methyl)phenyl]methyl}piperidine-3,4,5-triol], the half-maximal inhibitory concentration (IC50) in assay [1] was 291 nM; in assay [2] it was 213 nM; in assay [3], less than 1 nM; in assay [4], 15000 nM; in assay [5], less than 1 nM.

Take `Cc1cc(NCc2ccc(CN3C[C@H](O)[C@@H](O)[C@H](O)[C@H]3CO)cc2)cc(-c2ncccn2)c1` [Compound 1053, (2R,3R,4R,5S)-2-(hydroxymethyl)-1-{[4-({[3-methyl-5-(pyrimidin-2-yl)phenyl]amino}methyl)phenyl]methyl}piperidine-3,4,5-triol]: the IC50 was 118 nM in assay [1]; 139 nM in assay [2]; 23 nM in assay [3]; greater than 100000 nM in assay [4]; 2 nM in assay [5].

For `CS(=O)(=O)c1cc(NCc2ccc(CN3C[C@H](O)[C@@H](O)[C@H](O)[C@H]3CO)cc2)cc(N2CCOCC2)c1` [Compound 1054, (2R,3R,4R,5S)-2-(hydroxymethyl)-1-{[4-({[3-methanesulfonyl-5-(morpholin-4-yl)phenyl]amino}methyl)phenyl]methyl}piperidine-3,4,5-triol], the IC50 in assay [1] was 371 nM; in assay [2], 2200 nM; in assay [3], 160 nM; in assay [4] it was greater than 100000 nM; in assay [5], 57 nM.

On to `CS(=O)(=O)c1cc(NCc2ccc(CN3C[C@H](O)[C@@H](O)[C@H](O)[C@H]3CO)cc2)cc(-c2ncccn2)c1` [Compound 1059, (2R,3R,4R,5S)-2-(hydroxymethyl)-1-{[4-({[3-methanesulfonyl-5-(pyrimidin-2-yl)phenyl]amino}methyl)phenyl]methyl}piperidine-3,4,5-triol], for which the IC50 was 74 nM in assay [1]; 58 nM in assay [2]; 45 nM in assay [3]; greater than 100000 nM in assay [4]; 8 nM in assay [5].

`N#Cc1cc(NCc2ccc(CN3C[C@H](O)[C@@H](O)[C@H](O)[C@H]3CO)cc2)cc(N2CCOCC2)c1` [Compound 1060, 3-(morpholin-4-yl)-5-{[(4-{[(2R,3R,4R,5S)-3,4,5-trihydroxy-2-(hydroxymethyl)piperidin-1-yl]methyl}phenyl)methyl]amino}-benzonitrile]: the IC50 in assay [1] was 86 nM; in assay [2], 262 nM; in assay [3], 52 nM; in assay [4], greater than 100000 nM; in assay [5], 9 nM.

Regarding `N#Cc1cc(NCc2ccc(CN3C[C@H](O)[C@@H](O)[C@H](O)[C@H]3CO)cc2)cc(C2=COCCO2)c1` [Compound 1062, 3-(5,6-dihydro-1,4-dioxin-2-yl)-5-{[(4-{[(2R,3R,4R,5S)-3,4,5-trihydroxy-2-(hydroxymethyl)piperidin-1-yl]methyl}phenyl)-methyl]amino}benzonitrile], the IC50 was 68 nM in assay [1]; less than 1 nM in assay [2]; less than 1 nM in assay [3]; 35500 nM in assay [4]; less than 1 nM in assay [5].

On to `N#Cc1cc(NCc2ccc(CN3C[C@H](O)[C@@H](O)[C@H](O)[C@H]3CO)cc2)cc(-c2ccc[nH]2)c1` [Compound 1063, 3-(1H-pyrrol-2-yl)-5-{[(4-{[(2R,3R,4R,5S)-3,4,5-trihydroxy-2-(hydroxymethyl)piperidin-1-yl]methyl}phenyl)methyl]amino}-benzonitrile], for which the concentration for half-maximal inhibition (IC50) in assay [1] is 32 nM; in assay [2], 70 nM; in assay [3], less than 1 nM; in assay [4], greater than 100000 nM; in assay [5], less than 1 nM.

On to `N#Cc1cc(NCc2ccc(CN3C[C@H](O)[C@@H](O)[C@H](O)[C@H]3CO)cc2)cc(-c2cccnn2)c1` [Compound 1064, 3-(pyridazin-3-yl)-5-{[(4-{[(2R,3R,4R,5S)-3,4,5-trihydroxy-2-(hydroxymethyl)piperidin-1-yl]methyl}phenyl)methyl]amino}-benzonitrile], for which the IC50 in assay [1] came to 39 nM; in assay [2] it was 2 nM; in assay [3], 26 nM; in assay [4] it was 53700 nM; in assay [5] it was 2 nM.

Regarding `N#Cc1cc(NCc2ccc(CN3C[C@H](O)[C@@H](O)[C@H](O)[C@H]3CO)cc2)cc(-c2ncccn2)c1` [Compound 1065, 3-(pyrimidin-2-yl)-5-{[(4-{[(2R,3R,4R,5S)-3,4,5-trihydroxy-2-(hydroxymethyl)piperidin-1-yl]methyl}phenyl)methyl]amino}-benzonitrile], the 50% inhibitory concentration (IC50) amounted to 90 nM in assay [1]; 6 nM in assay [2]; 37 nM in assay [3]; 32100 nM in assay [4]; 3 nM in assay [5].

For the compound `OC[C@@H]1[C@@H](O)[C@H](O)[C@@H](O)CN1Cc1cccc(CNc2ccc(C3=COCCO3)cc2)c1` [Compound 1066, (2R,3R,4R,5S)-1-{[3-({[4-(5,6-dihydro-1,4-dioxin-2-yl)phenyl]amino}methyl)phenyl]methyl}-2-(hydroxymethyl)piperidine-3,4,5-triol], the concentration for half-maximal inhibition (IC50) in assay [1] is 1060 nM; in assay [2] it was 3360 nM; in assay [3], 26 nM; in assay [4], greater than 100000 nM; in assay [5], 41 nM.

Regarding `COc1cc(Br)cc(NCCn2cc(CCN3C[C@H](O)[C@@H](O)[C@H](O)[C@H]3CO)c3ccccc32)c1` [Compound 1075, (2R,3R,4R,5S)-1-[2-(1-{2-[(3-bromo-5-methoxyphenyl)amino]ethyl}-1H-indol-3-yl)ethyl]-2-(hydroxymethyl)piperidine-3,4,5-triol], the IC50 was determined as 3730 nM in assay [1]; 150 nM in assay [2]; 722 nM in assay [3]; 2520 nM in assay [4]; 238 nM in assay [5].
